Test results reported in patent publication US20170112896A1, “SMALL MOLECULE RAC OR RHO INHIBITORS” (Ohio State Innovation Foundation, priority 2014, published 2017).
Read-outs that look alike come from different tables or passages of the source. Square brackets hold non-standard residues; d marks the D form. Side chains are listed from the residue outwards. Peptide text beside a SMILES is read from it. * marks the point of attachment. His(τ-Bzl) = N[C@@H](Cc1cn(Cc2ccccc2)cn1)C(=O)O; Phe(3,4-F2) = N[C@@H](Cc1ccc(F)c(F)c1)C(=O)O; Phe(4-F) = N[C@@H](Cc1ccc(F)cc1)C(=O)O; 2Nal = N[C@@H](Cc1ccc2ccccc2c1)C(=O)O; d2Nal = N[C@H](Cc1ccc2ccccc2c1)C(=O)O; Tle = CC(C)(C)[C@H](N)C(=O)O; dNle = CCCC[C@@H](N)C(=O)O; Nle = CCCC[C@H](N)C(=O)O; X4 = O=C(c1ccc(Cl)nc1)*; Dap = NC[C@H](N)C(=O)O

How the values were obtained:
H1299 lung cancer cells = assay type: cell-based; conditions: for IC50: 72 h; for anti-proliferative activity against lung cancer cells (in words): MTT assay
Experimental: MTT assays (Mosmann, T. (1983) J. Immunol. Methods 65:55) were performed with H1299 lung cancer cells. One hundred μL of H1299 cells (0.5×10^5 cells/mL) were seeded in each well of a 96-well culture plate and allowed to grow overnight in Advanced RPMI medium supplemented with 10% fetal bovine serum (FBS) and 1% penicillin-streptomycin. Varying concentrations of cyclic peptide (0-25 μM) were added to the each well and the cells were incubated at 37° C. with 5% CO2 for 72 hours. Ten μL of a MTT stock solution (Roche) was added into each well. The plate was incubated at 37° C. for 4 h. Then 100 μL of SDS-HCl solubilizing buffer was added into each well, and the resulting solution was mixed thoroughly. The plate was incubated at 37° C. overnight. The absorbance of the formazan product was measured at 570 nm using a Molecular Devices Spectramax M5 plate reader. Each experiment was performed in triplicates and the cells without any peptide added were treated as control.

[1] = biological target: T1, Ras(G12V)-Raf RBD interaction (Homo sapiens, UniProt P01116, G12V); assay: HTRF assay, inhibition of Ras-Raf RBD interaction; assay type: binding; conditions: for increase of Ras binding affinity by substitution: relative to parent 9A5/9A6; for IC50: read-out: HTRF IC50
T1 construct: The G12V mutant K-Ras (amino acids 1-185) was recombinantly fused to glutathione 5-transferase (GST) at its N-terminus; GST (N, cleaved yes); made in house; host or cells: Escherichia coli BL21
T1 sequence (P01116 1-185 isoform P01116-2 G12V): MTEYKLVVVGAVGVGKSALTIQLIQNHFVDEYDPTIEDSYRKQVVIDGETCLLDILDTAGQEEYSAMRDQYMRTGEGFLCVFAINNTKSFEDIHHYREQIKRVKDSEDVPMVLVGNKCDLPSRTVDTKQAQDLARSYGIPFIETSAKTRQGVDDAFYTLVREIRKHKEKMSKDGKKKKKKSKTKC
Experimental: Recombinant HA-tagged K-Ras (no GST, 50 nM), GST-Raf RBD (50 nM each), a monoclonal anti-HA antibody labeled with acceptor d2 (2 μg/mL), a monoclonal anti-GST antibody labeled with donor Tb (0.25 μg/mL) (Cisbio), and increasing concentrations of cyclic peptide (0-20 μM) were mixed in PBS (total volume of 20 μL) in a 384-well plate. The plate was incubated overnight at 4° C. and the HTRF signal was measured on a Molecular Devices Spectramax M5 or a Tecan infinite M1000 Pro plate reader. The data were analyzed by Prism 6.0 from Graphpad Software, Inc. (La Jolla, Calif.) and IC50 values were obtained by fitting the data to dose-response-inhibition curve.

[2] = inhibition of Ras-Raf interaction, unlabeled peptide

Row | SMILES | IC50 (H1299 lung cancer cells) | other results
1 | CCCC[C@H]1NC(=O)[C@H](Cc2ccc(F)cc2)NC(=O)[C@H](CCCNC(=N)N)NC(=O)[C@@H](Cc2ccc3ccccc3c2)NC(=O)[C@H](CCCNC(=N)N)NC(=O)[C@H](CCCNC(=N)N)NC(=O)[C@@H](CCCNC(=N)N)NC(=O)[C@@H](C)NC(=O)[C@H](C(C)(C)C)NC(=O)[C@H](Cc2c[nH]c3ccccc23)NC(=O)[C@H](CCC(N)=O)NC1=O [Cyclorasin 9A16] (cyclo(W[Tle][dA][dR]RR[d2Nal]R[Phe(4-F)][dNle]Q)) | 3.5 ± 0.6 µM | increase of Ras binding affinity by substitution [1]: 2 fold
2 | CCCC[C@H]1NC(=O)[C@H](CNC(=O)c2ccc(Cl)nc2)NC(=O)[C@H](CCCNC(=N)N)NC(=O)[C@@H](Cc2ccc3ccccc3c2)NC(=O)[C@H](CCCNC(=N)N)NC(=O)[C@H](CCCNC(=N)N)NC(=O)[C@H](CCCNC(=N)N)NC(=O)[C@@H](C)NC(=O)[C@H](C(C)(C)C)NC(=O)[C@H](Cc2c[nH]c3ccccc23)NC(=O)[C@H](CCC(N)=O)NC1=O [Cyclorasin 9A44b] (cyclo(W[Tle][dA]RRR[d2Nal]R[Dap](X4)[dNle]Q)) |  | IC50 [1]: 0.52 ± 0.16 µM
3 | CCCC[C@H]1NC(=O)[C@H](Cc2ccc(F)cc2)NC(=O)[C@H](CCCNC(=N)N)NC(=O)[C@@H](Cc2ccc3ccccc3c2)NC(=O)[C@H](CCCNC(=N)N)NC(=O)[C@H](CCCNC(=N)N)NC(=O)[C@@H](CCCNC(=N)N)NC(=O)[C@@H](C(C)C)NC(=O)[C@H](C(C)(C)C)NC(=O)[C@H](Cc2c[nH]c3ccccc23)NC(=O)[C@H](CCC(N)=O)NC1=O [Cyclorasin 9A53] (cyclo(W[Tle][dV][dR]RR[d2Nal]R[Phe(4-F)][dNle]Q)) | 13 ± 1 µM | 
4 | CCCC[C@H]1NC(=O)[C@H](Cc2ccc(F)cc2)NC(=O)[C@H](CCCNC(=N)N)NC(=O)[C@@H](Cc2ccc3ccccc3c2)NC(=O)[C@H](CCCNC(=N)N)NC(=O)[C@H](CCCNC(=N)N)NC(=O)[C@@H](CCCNC(=N)N)NC(=O)[C@@H](C(C)C)NC(=O)[C@H]([C@@H](C)O)NC(=O)[C@H](Cc2c[nH]c3ccccc23)NC(=O)[C@H](CCC(N)=O)NC1=O [Cyclorasin 9A14] (cyclo(WT[dV][dR]RR[d2Nal]R[Phe(4-F)][dNle]Q)) | 5.4 ± 2.4 µM | increase of Ras binding affinity by substitution [1]: 2 fold
5 | CCCC[C@H]1NC(=O)[C@H](Cc2ccc(F)c(F)c2)NC(=O)[C@H](CCCNC(=N)N)NC(=O)[C@@H](Cc2ccc3ccccc3c2)NC(=O)[C@H](CCCNC(=N)N)NC(=O)[C@H](CCCNC(=N)N)NC(=O)[C@H](CCCNC(=N)N)NC(=O)[C@@H](C(C)C)NC(=O)[C@H](C(C)(C)C)NC(=O)[C@H](Cc2c[nH]c3ccccc23)NC(=O)[C@H](CCC(N)=O)NC1=O [Cyclorasin 9A54] (cyclo(W[Tle][dV]RRR[d2Nal]R[Phe(3,4-F2)][dNle]Q)) | 7.2 ± 0.4 µM | anti-proliferative activity against lung cancer cells (in words) (H1299 lung cancer cells): less effective
6 | CCCC[C@H]1NC(=O)[C@H](Cc2ccccc2)NC(=O)[C@H](CCCNC(=N)N)NC(=O)[C@@H](Cc2ccc3ccccc3c2)NC(=O)[C@H](CCCNC(=N)N)NC(=O)[C@H](CCCNC(=N)N)NC(=O)[C@@H](CCCNC(=N)N)NC(=O)[C@@H](C)NC(=O)[C@H]([C@@H](C)O)NC(=O)[C@H](Cc2c[nH]c3ccccc23)NC(=O)[C@H](CCC(N)=O)NC1=O [Cyclorasin 9A12] | 9.6 ± 1.3 µM | 
7 | CC(C)C[C@H]1NC(=O)[C@H](Cc2ccc(F)cc2)NC(=O)[C@H](CCCNC(=N)N)NC(=O)[C@@H](Cc2ccc3ccccc3c2)NC(=O)[C@H](CCCNC(=N)N)NC(=O)[C@H](CCCNC(=N)N)NC(=O)[C@@H](CCCNC(=N)N)NC(=O)[C@@H](C)NC(=O)[C@H]([C@@H](C)O)NC(=O)[C@H](Cc2c[nH]c3ccccc23)NC(=O)[C@H](CCC(N)=O)NC1=O [Cyclorasin 9A10] (cyclo(WT[dA][dR]RR[d2Nal]R[Phe(4-F)][dL]Q)) | 10 ± 3 µM | 
8 | C[C@H]1NC(=O)[C@H]([C@@H](C)O)NC(=O)[C@H](Cc2c[nH]c3ccccc23)NC(=O)[C@H](CCC(N)=O)NC(=O)[C@@H](CCCNC(=N)N)NC(=O)[C@H](Cc2ccc(F)c(F)c2)NC(=O)[C@H](CCCNC(=N)N)NC(=O)[C@@H](Cc2ccc3ccccc3c2)NC(=O)[C@H](CCCNC(=N)N)NC(=O)[C@H](CCCNC(=N)N)NC(=O)[C@H](CCCNC(=N)N)NC1=O [Cyclorasin 9A52] (cyclo([Phe(3,4-F2)][dR]QWT[dA]RRR[d2Nal]R)) |  | IC50 [1, 2]: > 1 µM
9 | CCCC[C@H]1NC(=O)[C@H](Cc2ccc(F)c(F)c2)NC(=O)[C@H](CCCNC(=N)N)NC(=O)[C@@H](Cc2ccc3ccccc3c2)NC(=O)[C@H](CCCNC(=N)N)NC(=O)[C@H](CCCNC(=N)N)NC(=O)[C@@H](CCCNC(=N)N)NC(=O)[C@@H](C(C)C)NC(=O)[C@H](C(C)(C)C)NC(=O)[C@H](Cc2c[nH]c3ccccc23)NC(=O)[C@H](CCC(N)=O)NC1=O [Cyclorasin 9A51] (cyclo(W[Tle][dV][dR]RR[d2Nal]R[Phe(3,4-F2)][dNle]Q)) | 6.7 ± 0.8 µM | anti-proliferative activity against lung cancer cells (in words) (H1299 lung cancer cells): less effective
10 | CCCC[C@H]1NC(=O)[C@H](Cc2ccc(F)cc2)NC(=O)[C@H](CCCNC(=N)N)NC(=O)[C@@H](Cc2ccc3ccccc3c2)NC(=O)[C@H](CCCNC(=N)N)NC(=O)[C@H](CCCNC(=N)N)NC(=O)[C@H](CCCNC(=N)N)NC(=O)[C@@H](C)NC(=O)[C@H]([C@@H](C)O)NC(=O)[C@H](Cc2ccc3ccccc3c2)NC(=O)[C@H](CCC(N)=O)NC1=O [Cyclorasin 9A49] (cyclo([2Nal]T[dA]RRR[d2Nal]R[Phe(4-F)][dNle]Q)) | 6.3 ± 0.4 µM | 
11 | CCCC[C@H]1NC(=O)[C@H](Cc2ccc(F)cc2)NC(=O)[C@H](CCCNC(=N)N)NC(=O)[C@H](Cc2ccc3ccccc3c2)NC(=O)[C@H](CCCNC(=N)N)NC(=O)[C@H](CCCNC(=N)N)NC(=O)[C@H](CCCNC(=N)N)NC(=O)[C@@H](C)NC(=O)[C@H]([C@@H](C)O)NC(=O)[C@H](Cc2c[nH]c3ccccc23)NC(=O)[C@H](CCC(N)=O)NC1=O [Cyclorasin 9A55] (cyclo(WT[dA]RRR[2Nal]R[Phe(4-F)][dNle]Q)) | 12 ± 1 µM | 
12 | CCCC[C@H](NC(=O)CC[C@@H]1NC(=O)[C@@H](C)NC(=O)[C@H]([C@@H](C)O)NC(=O)[C@H](Cc2c[nH]c3ccccc23)NC(=O)[C@H](CCC(N)=O)NC(=O)[C@@H](CCCC)NC(=O)[C@H](Cc2ccc(F)cc2)NC(=O)[C@H](CCCNC(=N)N)NC(=O)[C@@H](Cc2ccc3ccccc3c2)NC(=O)[C@H](CCCNC(=N)N)NC(=O)[C@H](CCCNC(=N)N)NC1=O)C(N)=O [Cyclorasin 9A4] (cyclo(RR[d2Nal]R[Phe(4-F)][dNle]QWT[dA]E([Nle-NH2]))) |  | IC50 [1, 2]: 0.5 ± 0.1 µM
13 | CCCC[C@H]1NC(=O)[C@H](Cc2ccc(O)cc2)NC(=O)[C@H](CCCNC(=N)N)NC(=O)[C@@H](Cc2ccc3ccccc3c2)NC(=O)[C@H](CCCNC(=N)N)NC(=O)[C@H](CCCNC(=N)N)NC(=O)[C@@H](CCCNC(=N)N)NC(=O)[C@@H](C)NC(=O)[C@H]([C@@H](C)O)NC(=O)[C@H](Cc2c[nH]c3ccccc23)NC(=O)[C@H](CCC(N)=O)NC1=O [Cyclorasin 9A13] (cyclo(QWT[dA][dR]RR[d2Nal]RY[dNle])) |  | IC50 [1, 2]: > 20 µM
14 | CCCC[C@H]1NC(=O)[C@H](Cc2ccc(F)cc2)NC(=O)[C@H](CCCNC(=N)N)NC(=O)[C@@H](Cc2ccc3ccccc3c2)NC(=O)[C@H](CCCNC(=N)N)NC(=O)[C@H](CCCNC(=N)N)NC(=O)[C@H](CCCNC(=N)N)NC(=O)[C@@H](C(C)C)NC(=O)[C@H](C(C)(C)C)NC(=O)[C@H](Cc2c[nH]c3ccccc23)NC(=O)[C@H](CCC(N)=O)NC1=O [Cyclorasin 9A48] (cyclo(W[Tle][dV]RRR[d2Nal]R[Phe(4-F)][dNle]Q)) | 11 ± 3 µM | 
15 | CC(C)[C@H]1NC(=O)[C@H](C(C)(C)C)NC(=O)[C@H](Cc2c[nH]c3ccccc23)NC(=O)[C@H](CCC(N)=O)NC(=O)[C@@H](CCCNC(=N)N)NC(=O)[C@H](Cc2ccc(F)c(F)c2)NC(=O)[C@H](CCCNC(=N)N)NC(=O)[C@@H](Cc2ccc3ccccc3c2)NC(=O)[C@H](CCCNC(=N)N)NC(=O)[C@H](CCCNC(=N)N)NC(=O)[C@H](CCCNC(=N)N)NC1=O [Cyclorasin 9A50] (cyclo([Phe(3,4-F2)][dR]QW[Tle][dV]RRR[d2Nal]R)) |  | IC50 [1, 2]: > 1 µM
16 | CCCC[C@H]1NC(=O)[C@H](Cc2ccc(F)cc2)NC(=O)[C@H](CCCNC(=N)N)NC(=O)[C@@H](Cc2ccc3ccccc3c2)NC(=O)[C@H](CCCNC(=N)N)NC(=O)[C@H](CCCNC(=N)N)NC(=O)[C@H](CCC(=O)N[C@@H](CCCCN)C(N)=O)NC(=O)[C@@H](C)NC(=O)[C@H]([C@@H](C)O)NC(=O)[C@H](Cc2c[nH]c3ccccc23)NC(=O)[C@H](CCC(N)=O)NC1=O [Cyclorasin 9A1] (cyclo(RR[d2Nal]R[Phe(4-F)][dNle]QWT[dA]E([Lys-NH2]))) | 13 ± 2 µM | 
17 | CCCC[C@H]1NC(=O)[C@H](Cc2ccc(F)cc2)NC(=O)[C@H](CCCNC(=N)N)NC(=O)[C@@H](Cc2ccc3ccccc3c2)NC(=O)[C@H](CCCNC(=N)N)NC(=O)[C@H](CCCNC(=N)N)NC(=O)[C@H](CCCNC(=N)N)NC(=O)[C@@H](C)NC(=O)[C@H]([C@@H](C)O)NC(=O)[C@H](Cc2cn(Cc3ccccc3)cn2)NC(=O)[C@H](CCC(N)=O)NC1=O [Cyclorasin 9A7] (cyclo([Phe(4-F)][dNle]Q[His(τ-Bzl)]T[dA]RRR[d2Nal]R)) | 10 ± 1 µM | 
18 | CCCC[C@H]1NC(=O)[C@H](Cc2ccc(F)cc2)NC(=O)[C@H](CCCNC(=N)N)NC(=O)[C@@H](Cc2ccc3ccccc3c2)NC(=O)[C@H](CCCNC(=N)N)NC(=O)[C@H](CCCNC(=N)N)NC(=O)[C@@H](CCCNC(=N)N)NC(=O)[C@@H](CC(C)C)NC(=O)[C@H]([C@@H](C)O)NC(=O)[C@H](Cc2c[nH]c3ccccc23)NC(=O)[C@H](CCC(N)=O)NC1=O [Cyclorasin 9A15] (cyclo(WT[dL][dR]RR[d2Nal]R[Phe(4-F)][dNle]Q)) | 12 ± 1 µM | 
